Experimental data as given in US11608330B2, “Methylamine derivatives as lysysl oxidase inhibitors for the treatment of cancer” (The Institute of Cancer Research: Royal Cancer Hospital, priority 2016, dated 2023).

Columns and labels:
[1] = tested on: MATN2 in MDA-MB-231 cells; assay: MATN2 level in MDA-MB-231 cells; format: cell-based, human; conditions: at a much higher concentration
Description: Proteins were extracted from cultured cells using cell lysis buffer (Cell Signalling Technology) with the addition of protease and phosphatase inhibitor cocktails (Pierce). Protein concentrations were measured using Pierce 660 nm protein assay reagent and SpectaMax M5 plate reader. […] Separated proteins were transferred to nitrocellulose membranes using a Trans-Blot turbo transfer system (Bio-Rad). Following blocking with Odyssey blocking buffer (Li—COR), membranes were incubated with two primary antibodies of different species at 4° C. over night. Corresponding fluorescence secondary antibodies (Li—COR) of different excitation and emission wavelengths were used to visualize the protein of interest on an Odyssey CLx infrared imaging system (Li—COR). Quantification of band fluorescent intensity was achieved using Li-COR ImageStudio. The following primary antibodies were used, anti-LOX (Sigma), anti-human MATN2 (R&D), anti-EGFR and anti-pY1068EGFR (Cell Signalling Technology), and anti-GAPDH (Millipore).

[2] = tested on: TGF beta signalling (pSMAD2); format: cell-based

Compound: N#CCCN [BAPN, beta-aminopropionitrile]
- reduction of MATN2 [1]: same effect
- TGF beta signalling as indicated by pSMAD2 [2]: increased TGF beta signalling
